The supplement of paper PMC11616607

What was measured:
Test in all cases: drug sensitivity score (DSS) from 5-point dose-response viability curve (DSS (area-under-curve based score)); higher = more sensitive (stronger growth inhibition or killing); extreme values may be limits of the assay
Details in all cases: exposure time: 72 h; concentration range: 5 concentrations over 10,000-fold range
Ovsaho = system: Ovsaho
Outline: (§1)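 Each cell line and drug received a drug sensitivity score from Breeze software, where higher means more sensitive. Zero stands for no response. Scores came from CellTiter-Glo viability readings of ovarian cancer and normal ovarian cells, 1,500 per well in 384-well plates, after 3 days at 37°C, 5% CO2 with drugs at five concentrations over a 10,000-fold range.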

HOSE2C = system: HOSE2C
Outline: as §1

OVCAR4 = system: OVCAR4
Outline: as §1

HOSE1C = system: HOSE1C
Outline: as §1

COV318 = system: COV318
Outline: as §1

OVCAR8 = system: OVCAR8
Outline: as §1

JHOS2 = system: JHOS2
Outline: as §1

Kuramochi = system: Kuramochi
Outline: as §1

OV90 = system: OV90
Outline: as §1

OVCAR5 = system: OVCAR5
Outline: as §1

COV362 = system: COV362
Outline: as §1

CAOV3 = system: CAOV3
Outline: as §1

With CC(C)C[C@H](NC(=O)[C@H](CCc1ccccc1)NC(=O)CN1CCOCC1)C(=O)N[C@@H](Cc1ccccc1)C(=O)N[C@@H](CC(C)C)C(=O)[C@@]1(C)CO1 [Carfilzomib] the drug sensitivity score (Ovsaho) was 28.4, the drug sensitivity score (HOSE2C) was 28.4 and the drug sensitivity score (OVCAR4) was 23.4. It also gave a drug sensitivity score (HOSE1C) of 27.4, a drug sensitivity score (COV318) of 26.5 and a drug sensitivity score (OVCAR8) of 21.5. The drug sensitivity score (JHOS2) was 25.5, the drug sensitivity score (Kuramochi) was 12.4 and the drug sensitivity score (OV90) was 27.6. It also gave a drug sensitivity score (OVCAR5) of 24, a drug sensitivity score (COV362) of 20.2 and a drug sensitivity score (CAOV3) of 24.6.
Work on C[C@@H]1CN(C(=O)c2ccc(NC(=O)c3cc(O[C@H](C)c4c(Cl)ccc(F)c4Cl)c(N)nn3)cc2)C[C@H](C)N1 [Ensartinib] yielded a drug sensitivity score (Ovsaho) of 0, a drug sensitivity score (HOSE2C) of 1.9 and a drug sensitivity score (OVCAR4) of 0. For the same compound, the drug sensitivity score (HOSE1C) was 0.5, the drug sensitivity score (COV318) was 0 and the drug sensitivity score (OVCAR8) was 0. For the same compound, the drug sensitivity score (JHOS2) was 0, the drug sensitivity score (Kuramochi) was 0 and the drug sensitivity score (OV90) was 0.1. For the same compound, the drug sensitivity score (OVCAR5) was 1.8, the drug sensitivity score (COV362) was 0 and the drug sensitivity score (CAOV3) was 1.5.
Work on CC(C)c1c(C(=O)Nc2ccccc2)c(-c2ccccc2)c(-c2ccc(F)cc2)n1CC[C@@H](O)C[C@@H](O)CC(=O)O [Atorvastatin] yielded a drug sensitivity score (Ovsaho) of 5.2, a drug sensitivity score (HOSE2C) of 10.8 and a drug sensitivity score (OVCAR4) of 0. For the same compound, the drug sensitivity score (HOSE1C) was 10.1, the drug sensitivity score (COV318) was 0 and the drug sensitivity score (OVCAR8) was 3.6. For the same compound, the drug sensitivity score (JHOS2) was 0.3, the drug sensitivity score (Kuramochi) was 1 and the drug sensitivity score (OV90) was 2.3. It also gave a drug sensitivity score (OVCAR5) of 0.4, a drug sensitivity score (COV362) of 0 and a drug sensitivity score (CAOV3) of 0.8.
Work on C[C@@H](Oc1ccc2[nH]nc(/C=C/c3cnn(CCO)c3)c2c1)c1c(Cl)cncc1Cl yielded a drug sensitivity score (Ovsaho) of 4.9, a drug sensitivity score (HOSE2C) of 22.7 and a drug sensitivity score (OVCAR4) of 2.5. For the same compound, the drug sensitivity score (HOSE1C) was 8.5, the drug sensitivity score (COV318) was 2.3 and the drug sensitivity score (OVCAR8) was 3.4. It also gave a drug sensitivity score (JHOS2) of 2, a drug sensitivity score (Kuramochi) of 1.8 and a drug sensitivity score (OV90) of 5.3. For the same compound, the drug sensitivity score (OVCAR5) was 5.5, the drug sensitivity score (COV362) was 2.2 and the drug sensitivity score (CAOV3) was 6.9.
COc1ccc(-c2nc(N3CCOCC3)c3sc(CN(C)c4ncc(C(=O)NO)cn4)cc3n2)cn1 [CUDC-907] was tested, and the drug sensitivity score (Ovsaho) was 29.2, the drug sensitivity score (HOSE2C) was 42.7 and the drug sensitivity score (OVCAR4) was 26.2. It also gave a drug sensitivity score (HOSE1C) of 45.8, a drug sensitivity score (COV318) of 21.3 and a drug sensitivity score (OVCAR8) of 41.5. The drug sensitivity score (JHOS2) was 26.4, the drug sensitivity score (Kuramochi) was 29.4 and the drug sensitivity score (OV90) was 37. The drug sensitivity score (OVCAR5) was 38.3, the drug sensitivity score (COV362) was 20.3 and the drug sensitivity score (CAOV3) was 31.3.
COc1cc2ncnc(Oc3cccc(NC(=O)Nc4cc(C(C)(C)C(F)(F)F)on4)c3)c2cc1OC was tested, and the drug sensitivity score (Ovsaho) was 0, the drug sensitivity score (HOSE2C) was 0 and the drug sensitivity score (OVCAR4) was 0. It also gave a drug sensitivity score (HOSE1C) of 1.3, a drug sensitivity score (COV318) of 0 and a drug sensitivity score (OVCAR8) of 0. The drug sensitivity score (JHOS2) was 1.5, the drug sensitivity score (Kuramochi) was 0.4 and the drug sensitivity score (OV90) was 2.4. The drug sensitivity score (OVCAR5) was 3, the drug sensitivity score (COV362) was 0 and the drug sensitivity score (CAOV3) was 0.
With CCc1cc2c(cc1N1CCC(N3CCOCC3)CC1)C(C)(C)c1[nH]c3cc(C#N)ccc3c1C2=O [Alectinib] the drug sensitivity score (Ovsaho) was 0, the drug sensitivity score (HOSE2C) was 0 and the drug sensitivity score (OVCAR4) was 0. The drug sensitivity score (HOSE1C) was 0, the drug sensitivity score (COV318) was 0 and the drug sensitivity score (OVCAR8) was 0.4. For the same compound, the drug sensitivity score (JHOS2) was 0, the drug sensitivity score (Kuramochi) was 0 and the drug sensitivity score (OV90) was 0. For the same compound, the drug sensitivity score (OVCAR5) was 1.5, the drug sensitivity score (COV362) was 0 and the drug sensitivity score (CAOV3) was 0.
CC[C@H](Nc1ncnc2[nH]cnc12)c1nc2cccc(F)c2c(=O)n1-c1ccccc1 [Idelalisib] gave a drug sensitivity score (Ovsaho) of 5.7, a drug sensitivity score (HOSE2C) of 1 and a drug sensitivity score (OVCAR4) of 2.3. For the same compound, the drug sensitivity score (HOSE1C) was 0.1, the drug sensitivity score (COV318) was 0.7 and the drug sensitivity score (OVCAR8) was 0.2. For the same compound, the drug sensitivity score (JHOS2) was 0.9, the drug sensitivity score (Kuramochi) was 5.8 and the drug sensitivity score (OV90) was 0. The drug sensitivity score (OVCAR5) was 2.7, the drug sensitivity score (COV362) was 1.3 and the drug sensitivity score (CAOV3) was 0.8.
For CN(C)C[C@@H]1CCn2cc(c3ccccc32)C2=C(C(=O)NC2=O)c2cn(c3ccccc23)CCO1 [Ruboxistaurin], the drug sensitivity score (Ovsaho) was 9.2, the drug sensitivity score (HOSE2C) was 6.2 and the drug sensitivity score (OVCAR4) was 2.5. For the same compound, the drug sensitivity score (HOSE1C) was 6.3, the drug sensitivity score (COV318) was 7.7 and the drug sensitivity score (OVCAR8) was 6.6. For the same compound, the drug sensitivity score (JHOS2) was 8.8, the drug sensitivity score (Kuramochi) was 7.2 and the drug sensitivity score (OV90) was 6.4. It also gave a drug sensitivity score (OVCAR5) of 5.6, a drug sensitivity score (COV362) of 2.5 and a drug sensitivity score (CAOV3) of 7.
For CC#CC(=O)N1CC[C@@H](n2c(=O)n(-c3ccc(Oc4ccccc4)cc3)c3c(N)ncnc32)C1 [Tirabrutinib], the drug sensitivity score (Ovsaho) was 0.3, the drug sensitivity score (HOSE2C) was 0 and the drug sensitivity score (OVCAR4) was 0. The drug sensitivity score (HOSE1C) was 0, the drug sensitivity score (COV318) was 0 and the drug sensitivity score (OVCAR8) was 0. For the same compound, the drug sensitivity score (JHOS2) was 0, the drug sensitivity score (Kuramochi) was 1.3 and the drug sensitivity score (OV90) was 0. For the same compound, the drug sensitivity score (OVCAR5) was 0.8, the drug sensitivity score (COV362) was 0 and the drug sensitivity score (CAOV3) was 1.6.
Oc1nc(-c2ccc(C(F)(F)F)cc2)nc2c1CSCC2 [XAV-939] was tested, and the drug sensitivity score (Ovsaho) was 2.3, the drug sensitivity score (HOSE2C) was 0 and the drug sensitivity score (OVCAR4) was 3.6. The drug sensitivity score (HOSE1C) was 0, the drug sensitivity score (COV318) was 0 and the drug sensitivity score (OVCAR8) was 0. It also gave a drug sensitivity score (JHOS2) of 0.1, a drug sensitivity score (Kuramochi) of 1.5 and a drug sensitivity score (OV90) of 0. The drug sensitivity score (OVCAR5) was 0, the drug sensitivity score (COV362) was 0 and the drug sensitivity score (CAOV3) was 0.
In the case of Cc1ccc(C(=O)Nc2cccc(C(F)(F)F)c2)cc1Nc1nc(-c2cccnc2)nc2c1cnn2C [NVP-BHG712], the drug sensitivity score (Ovsaho) is reported as 2.9, the drug sensitivity score (HOSE2C) is reported as 2.7 and the drug sensitivity score (OVCAR4) is reported as 1.4. It also gave a drug sensitivity score (HOSE1C) of 2.2, a drug sensitivity score (COV318) of 2.8 and a drug sensitivity score (OVCAR8) of 4.9. It also gave a drug sensitivity score (JHOS2) of 2.1, a drug sensitivity score (Kuramochi) of 2.5 and a drug sensitivity score (OV90) of 0.1. For the same compound, the drug sensitivity score (OVCAR5) was 8.8, the drug sensitivity score (COV362) was 5.6 and the drug sensitivity score (CAOV3) was 0.
Work on Cc1nc(C(=O)NCC(=O)O)c(O)c2ccc(Oc3ccccc3)cc12 [Roxadustat] yielded a drug sensitivity score (Ovsaho) of 0, a drug sensitivity score (HOSE2C) of 0 and a drug sensitivity score (OVCAR4) of 0.3. The drug sensitivity score (HOSE1C) was 0, the drug sensitivity score (COV318) was 0 and the drug sensitivity score (OVCAR8) was 0. It also gave a drug sensitivity score (JHOS2) of 0.1, a drug sensitivity score (Kuramochi) of 0.4 and a drug sensitivity score (OV90) of 0. It also gave a drug sensitivity score (OVCAR5) of 0, a drug sensitivity score (COV362) of 0 and a drug sensitivity score (CAOV3) of 1.3.
In the case of CC(C)[C@H]1C(=O)N[C@@H](CCCNC(=N)N)C(=O)NCC(=O)N[C@@H](CC(=O)O)C(=O)N[C@H](Cc2ccccc2)C(=O)N1C [Cilengitide], the drug sensitivity score (Ovsaho) is reported as 17.7, the drug sensitivity score (HOSE2C) is reported as 3.5 and the drug sensitivity score (OVCAR4) is reported as 2.9. The drug sensitivity score (HOSE1C) was 0, the drug sensitivity score (COV318) was 0 and the drug sensitivity score (OVCAR8) was 0.2. The drug sensitivity score (JHOS2) was 1.6, the drug sensitivity score (Kuramochi) was 5.4 and the drug sensitivity score (OV90) was 2.5. It also gave a drug sensitivity score (OVCAR5) of 1.1, a drug sensitivity score (COV362) of 5.6 and a drug sensitivity score (CAOV3) of 0.
